Legend:
[1] = system: Towne strain of human cytomegalovirus (HCMV); test: Evaluation of antiviral activity: viral load of HCMV-infected HEL cells by the plaque method; type: cell-based; conditions: for EC50: Human betaherpesvirus 5, HEL, 144 h, read-out: EC50 value (anti-HCMV effect)
Protocol: Diploid fibroblasts derived from human embryonic lung (Human embryonic lung fibroblasts; HEL cells) cultured in a 9.6 cm^2 petri dish until they became confluent using Dulbecco's Modified Eagle Medium (DMEM) to which 8% fetal calf serum (FCS) was added were prepared. The HEL cells were adsorbed and infected with a Towne strain of human cytomegalovirus (HCMV) with a multiplicity of infection (MOI) of 1, and cultured at 37° C. for 1 hour to obtain HCMV-infected cells.
The compound of the present invention or tricin which were serially diluted with dimethyl sulfoxide (compound concentration: 0.001, 0.01, 0.1, 1 and 10 μM) was added to the above HCMV-infected cells and cultured for 6 days. The number of infectious HCMV particles produced in the culture supernatant (viral load) was determined by the plaque method.
The plaque method was performed in the following manner. After the HEL cells cultured in a 24-well plate until they became confluent were adsorbed and infected with the culture supernatant which was 10-fold serially diluted at 37° C. for 1 hour, the 2% FCS and 0.4% agar-containing DMEM media were overlaid and then cultured. Several days (6 to 12 days) after the initiation of culture, the number of plaques appeared was counted under a microscope, and the viral load was measured.
A lower value of the relative value (the viral load against control) means a higher antiviral activity.
Using the compound obtained as mentioned above (the compound of the present invention), tricin and ganciclovir, the antiviral activity of each compound was evaluated in the same manner as in the above <Evaluation of Antiviral Activity—1>.

HEL cells = test: Evaluation of cytotoxicity to HEL cells by LDH release assay; type: cell-based, human; conditions: 37° C. for 5 days, concentrations of at least up to 10 μM, FIG. 3
Protocol: Using the compound obtained as mentioned above (the compound of the present invention), tricin and flavopiridol, the cytotoxicity to the HEL cells was evaluated in accordance with the following procedure. Flavopiridol is a control compound in this Test Example, which is known to have toxicity although it functions as an antiviral agent.
The HEL cells were cultured at 37° C. for 5 days in the presence or absence of the above each compound. The proportion of viable cells after culture was calculated by the LDH release assay. The kit (trade name “Cyto Tox 96 (registered trademark) assay”, manufactured by Promega Corporation) was used for the assay. The test was repeated three times, and data were represented as mean±SD.

SMILES | EC50 [1] | antiviral activity (viral load against control) ([1]; FIG. 1, compared with tricin, clearly observed at 0.001 to 1.000 μM) | antiviral activity (viral load against control) ([1]; FIG. 2, compared with tricin and ganciclovir, clearly observed at 0.1 to 1,000 nM) | anti-HCMV effect higher than that of ganciclovir ([1]; from EC50 values, versus ganciclovir) | anti-HCMV effect higher than that of tricin ([1]; from EC50 values, versus tricin) | cytotoxicity (proportion of viable cells) (HEL cells)
Nc1nc(O)c2ncn(COC(CO)CO)c2n1 [ganciclovir, reference compound] | 27.5 nM | – | – | – | – | –
COc1cc(-c2cc(=O)c3ccc(F)cc3o2)cc(OC)c1O [the compound of the present invention, 7-fluoro-4′-hydroxy-3′,5′-dimethoxyflavone] | 0.13 nM | remarkably higher antiviral activity than tricin | remarkably higher antiviral activity than tricin and ganciclovir | about 200 fold | about 400 fold | no cytotoxicity
COc1cc(-c2cc(=O)c3c(O)cc(O)cc3o2)cc(OC)c1O [tricin, 4′,5,7-trihydroxy-3′,5′-dimethoxyflavone, reference compound] | 54.3 nM | – | – | – | – | –
